US20260085053A1, “BENZOFURAN DERIVATIVES AS SIK INHIBITORS AND THE USE THEREOF” (BEONE MEDICINES I GMBH, priority 2023, published 2026)

Tests used:
[1] = target: T1, SIK1 kinase (aa1-303, Thermo Fisher) (Homo sapiens, UniProt P57059); test: Biochemical activities determination for SIK1 protein (TR-FRET); details: 110 uM ATP, 0.5 μM STK1 substrate
T1 construct: SIK1 kinase (aa1-303, Thermo Fisher); purchased Thermo Fisher
Outline: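 TR-FRET kinase assay with SIK1 (aa1-303), 110 uM ATP, 0.5 μM STK1 substrate and 0-10 μM compound in Tris pH 7.5 with MgCl2, EGTA, DTT, Triton X-100. Enzyme preincubated with compound 60 min, reaction 180 min at room temperature; 665/620 nm ratio after overnight detection; IC50 from four-parameter logistic fit.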

[2] = target: T2, SIK3 kinase (aa59-365, Thermo Fisher) (Homo sapiens, UniProt Q9Y2K2); test: Biochemical activities determination for SIK3 protein (TR-FRET); details: 125 uM ATP, 0.5 μM STK1 substrate
T2 construct: SIK3 kinase (aa59-365, Thermo Fisher); purchased Thermo Fisher
T2 sequence (Q9Y2K2 59-365): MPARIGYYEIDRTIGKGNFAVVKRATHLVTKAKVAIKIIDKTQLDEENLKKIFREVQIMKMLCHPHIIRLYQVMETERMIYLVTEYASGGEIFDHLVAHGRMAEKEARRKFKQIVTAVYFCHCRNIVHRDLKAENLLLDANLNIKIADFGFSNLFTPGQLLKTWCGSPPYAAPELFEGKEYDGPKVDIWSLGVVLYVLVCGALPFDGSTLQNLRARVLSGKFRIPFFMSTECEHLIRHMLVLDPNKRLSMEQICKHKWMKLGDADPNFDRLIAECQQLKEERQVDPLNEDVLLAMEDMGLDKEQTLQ
Outline: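 SIK3 (aa59-365) was preincubated with compound (0-10 μM) for 60 min at room temperature in Tris buffer pH 7.5. The reaction was then started with 125 uM ATP and 0.5 μM STK1 substrate and run 180 min at room temperature. Phospho-substrate was detected by HTRF (665/620 nm ratio), and IC50 came from a four-parameter logistic fit.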

[3] = target: T3, SIK2 kinase (full length, Thermo Fisher) (Homo sapiens, UniProt Q9H0K1); test: Biochemical activities determination for SIK2 protein (TR-FRET); details: 80 uM ATP, 0.5 μM substrate
T3 construct: SIK2 kinase (full length, Thermo Fisher); purchased Thermo Fisher
T3 sequence (Q9H0K1 whole entry): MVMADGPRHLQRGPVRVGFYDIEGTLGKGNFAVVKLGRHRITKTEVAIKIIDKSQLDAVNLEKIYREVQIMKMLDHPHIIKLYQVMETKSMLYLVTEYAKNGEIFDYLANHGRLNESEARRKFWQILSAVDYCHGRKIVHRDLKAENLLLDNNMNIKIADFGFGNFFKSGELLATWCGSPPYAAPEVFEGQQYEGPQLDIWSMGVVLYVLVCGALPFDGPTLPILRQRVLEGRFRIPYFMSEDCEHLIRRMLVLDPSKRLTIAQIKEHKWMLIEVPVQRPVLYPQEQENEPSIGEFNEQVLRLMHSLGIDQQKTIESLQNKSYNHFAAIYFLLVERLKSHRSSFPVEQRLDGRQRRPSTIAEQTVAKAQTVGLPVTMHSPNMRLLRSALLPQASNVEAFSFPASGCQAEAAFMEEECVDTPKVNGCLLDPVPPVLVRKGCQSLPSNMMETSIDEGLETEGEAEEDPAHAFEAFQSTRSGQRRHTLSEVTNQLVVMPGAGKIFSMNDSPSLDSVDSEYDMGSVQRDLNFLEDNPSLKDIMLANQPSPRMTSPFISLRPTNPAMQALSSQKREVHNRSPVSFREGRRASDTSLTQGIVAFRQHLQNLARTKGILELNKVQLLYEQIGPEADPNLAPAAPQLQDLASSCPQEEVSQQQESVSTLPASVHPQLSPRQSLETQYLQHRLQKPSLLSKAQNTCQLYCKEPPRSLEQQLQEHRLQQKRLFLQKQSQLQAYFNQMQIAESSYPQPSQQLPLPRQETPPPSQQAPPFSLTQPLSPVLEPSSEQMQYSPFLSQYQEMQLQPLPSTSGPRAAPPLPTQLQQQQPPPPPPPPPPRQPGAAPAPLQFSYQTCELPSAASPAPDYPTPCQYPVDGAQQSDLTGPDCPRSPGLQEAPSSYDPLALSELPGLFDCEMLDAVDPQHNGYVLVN
Outline: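 Full-length SIK2 preincubated 60 min with 0–10 μM compound, then reacted 180 min at room temperature with 80 uM ATP and 0.5 μM biotinylated substrate (pH 7.5 Tris/MgCl2 buffer). Phosphorylation detected by TR-FRET (665/620 nm ratio, cryptate antibody/streptavidin-XL665) after overnight incubation; IC50 from four-parameter logistic fit.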

T1 sequence (P57059 1-303): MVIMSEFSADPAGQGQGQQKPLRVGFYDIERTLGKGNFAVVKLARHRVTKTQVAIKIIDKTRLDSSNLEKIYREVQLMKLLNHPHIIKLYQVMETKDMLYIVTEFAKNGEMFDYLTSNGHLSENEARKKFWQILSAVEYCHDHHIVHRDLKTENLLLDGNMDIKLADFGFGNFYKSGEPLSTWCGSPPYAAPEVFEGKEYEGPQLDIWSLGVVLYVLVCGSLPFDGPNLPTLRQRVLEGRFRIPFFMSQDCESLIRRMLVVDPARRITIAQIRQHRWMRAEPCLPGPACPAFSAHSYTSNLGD

Row | IC50 [1] | IC50 [2] | IC50 [3] | Structure (SMILES)
1 | 9500 nM | 410 nM | 114 nM | O=C(NC1CC1)c1c(OCCO)cc(-c2coc3cc(OCCN4CCCC4)ccc23)cc1OC(F)F [Compound 103, N-cyclopropyl-2-(difluoromethoxy)-6-(2-hydroxyethoxy)-4-(6-(2-(pyrrolidin-1-yl)ethoxy)benzofuran-3-yl)benzamide]
2 | 4580 nM | 211 nM | 52 nM | O=C(NC1CC1)c1c(NCCO)cc(-c2coc3cc(OCCN4CCCC4)ccc23)cc1OC(F)F [Compound 104, N-cyclopropyl-2-(difluoromethoxy)-6-((2-hydroxyethyl)amino)-4-(6-(2-(pyrrolidin-1-yl)ethoxy)benzofuran-3-yl)benzamide]
3 | > 10000 nM | 1770 nM | 398 nM | O=C(NC1CC1)c1c(F)cc(-c2coc3cc(OCCN4CCCC4)ccc23)cc1OC(F)F [Compound 105, N-cyclopropyl-2-(difluoromethoxy)-6-fluoro-4-(6-(2-(pyrrolidin-1-yl)ethoxy)benzofuran-3-yl)benzamide]
4 | > 10000 nM | > 10000 nM | 2960 nM | CN1CC(Oc2cc(-c3coc4cc(OCCN5CCCC5)ccc34)cc(OC(F)F)c2C(=O)NC2CC2)C1 [Compound 106, N-cyclopropyl-2-(difluoromethoxy)-6-((1-methylazetidin-3-yl)oxy)-4-(6-(2-(pyrrolidin-1-yl)ethoxy)benzofuran-3-yl)benzamide]
5 | > 10000 nM | > 10000 nM | 5610 nM | CN1CCC[C@@H]1COc1cc(-c2coc3cc(OCCN4CCCC4)ccc23)cc(OC(F)F)c1C(=O)NC1CC1 [Compound 107, (R)—N-cyclopropyl-2-(difluoromethoxy)-6-((1-methylpyrrolidin-2-yl)methoxy)-4-(6-(2-(pyrrolidin-1-yl)ethoxy)benzofuran-3-yl)benzamide]
6 | > 10000 nM | > 10000 nM | 2780 nM | CC(C)(O)COc1cc(-c2coc3cc(OCCN4CCCC4)ccc23)cc(OC(F)F)c1C(=O)NC1CC1 [Compound 108, N-cyclopropyl-2-(difluoromethoxy)-6-(2-hydroxy-2-methylpropoxy)-4-(6-(2-(pyrrolidin-1-yl)ethoxy)benzofuran-3-yl)benzamide]
7 | > 10000 nM | > 10000 nM | 3850 nM | CN1CC[C@@H](Oc2cc(-c3coc4cc(OCCN5CCCC5)ccc34)cc(OC(F)F)c2C(=O)NC2CC2)C1 [Compound 110, (R)—N-cyclopropyl-2-(difluoromethoxy)-6-((1-methylpyrrolidin-3-yl)oxy)-4-(6-(2-(pyrrolidin-1-yl)ethoxy)benzofuran-3-yl)benzamide]
8 | > 10000 nM | 5700 nM | 1190 nM | CN1CC[C@H](Oc2cc(-c3coc4cc(OCCN5CCCC5)ccc34)cc(OC(F)F)c2C(=O)NC2CC2)C1 [Compound 111, (S)—N-cyclopropyl-2-(difluoromethoxy)-6-((1-methylpyrrolidin-3-yl)oxy)-4-(6-(2-(pyrrolidin-1-yl)ethoxy)benzofuran-3-yl)benzamide]
9 | > 10000 nM | 7620 nM | 1300 nM | CN1CC[C@@H](COc2cc(-c3coc4cc(OCCN5CCCC5)ccc34)cc(OC(F)F)c2C(=O)NC2CC2)C1 [Compound 112, (R)—N-cyclopropyl-2-(difluoromethoxy)-6-((1-methylpyrrolidin-3-yl)methoxy)-4-(6-(2-(pyrrolidin-1-yl)ethoxy)benzofuran-3-yl)benzamide]
10 | > 10000 nM | > 10000 nM | 7320 nM | CN1CCC[C@H]1COc1cc(-c2coc3cc(OCCN4CCCC4)ccc23)cc(OC(F)F)c1C(=O)NC1CC1 [Compound 113, (S)—N-cyclopropyl-2-(difluoromethoxy)-6-((1-methylpyrrolidin-2-yl)methoxy)-4-(6-(2-(pyrrolidin-1-yl)ethoxy)benzofuran-3-yl)benzamide]
11 | > 10000 nM | 5490 nM | 745 nM | CN1CC[C@@H]1COc1cc(-c2coc3cc(OCCN4CCCC4)ccc23)cc(OC(F)F)c1C(=O)NC1CC1 [Compound 114, (R)—N-cyclopropyl-2-(difluoromethoxy)-6-((1-methylazetidin-2-yl)methoxy)-4-(6-(2-(pyrrolidin-1-yl)ethoxy)benzofuran-3-yl)benzamide]
12 | > 10000 nM | 4240 nM | 582 nM | CN1CC(COc2cc(-c3coc4cc(OCCN5CCCC5)ccc34)cc(OC(F)F)c2C(=O)NC2CC2)C1 [Compound 115, N-cyclopropyl-2-(difluoromethoxy)-6-((1-methylazetidin-3-yl)methoxy)-4-(6-(2-(pyrrolidin-1-yl)ethoxy)benzofuran-3-yl)benzamide]
13 | > 10000 nM | > 10000 nM | 1120 nM | CN1CC[C@H](COc2cc(-c3coc4cc(OCCN5CCCC5)ccc34)cc(OC(F)F)c2C(=O)NC2CC2)C1 [Compound 116, (S)—N-cyclopropyl-2-(difluoromethoxy)-6-((1-methylpyrrolidin-3-yl)methoxy)-4-(6-(2-(pyrrolidin-1-yl)ethoxy)benzofuran-3-yl)benzamide]
14 | > 10000 nM | > 10000 nM | 2940 nM | CN1CC[C@H]1COc1cc(-c2coc3cc(OCCN4CCCC4)ccc23)cc(OC(F)F)c1C(=O)NC1CC1 [Compound 117, (S)—N-cyclopropyl-2-(difluoromethoxy)-6-((1-methylazetidin-2-yl)methoxy)-4-(6-(2-(pyrrolidin-1-yl)ethoxy)benzofuran-3-yl)benzamide]
15 | > 10000 nM | 6310 nM | 781 nM | CN(C)CCOc1cc(-c2coc3cc(OCCN4CCCC4)ccc23)cc(OC(F)F)c1C(=O)NC1CC1 [Compound 118, N-cyclopropyl-2-(difluoromethoxy)-6-(2-(dimethylamino)ethoxy)-4-(6-(2-(pyrrolidin-1-yl)ethoxy)benzofuran-3-yl)benzamide]
16 | 7180 nM | 452 nM | 136 nM | CCOc1cc(-c2coc3cc(OCCN4CCCC4)ccc23)cc(OC(F)F)c1C(=O)NC1CC1 [Compound 119, N-cyclopropyl-2-(difluoromethoxy)-6-ethoxy-4-(6-(2-(pyrrolidin-1-yl)ethoxy)benzofuran-3-yl)benzamide]
17 | > 10000 nM | 2540 nM | 619 nM | CC(C)Oc1cc(-c2coc3cc(OCCN4CCCC4)ccc23)cc(OC(F)F)c1C(=O)NC1CC1 [Compound 120, N-cyclopropyl-2-(difluoromethoxy)-6-isopropoxy-4-(6-(2-(pyrrolidin-1-yl)ethoxy)benzofuran-3-yl)benzamide]
18 | > 10000 nM | 2120 nM | 438 nM | O=C(NC1CC1)c1c(OC(F)F)cc(-c2coc3cc(OCCN4CCCC4)ccc23)cc1OC1CC1 [Compound 121, 2-cyclopropoxy-N-cyclopropyl-6-(difluoromethoxy)-4-(6-(2-(pyrrolidin-1-yl)ethoxy)benzofuran-3-yl)benzamide]
19 | 3960 nM | 158 nM | 45 nM | CNc1cc(-c2coc3cc(OCCN4CCCC4)ccc23)cc(OC(F)F)c1C(=O)NC1CC1 [Compound 122, N-cyclopropyl-2-(difluoromethoxy)-6-(methylamino)-4-(6-(2-(pyrrolidin-1-yl)ethoxy)benzofuran-3-yl)benzamide]
20 | 8000 nM | 506 nM | 114 nM | O=C(NC1CC1)c1c(OC(F)F)cc(-c2coc3cc(OCCN4CCCC4)ccc23)cc1OC(F)F [Compound 123, N-cyclopropyl-2,6-bis(difluoromethoxy)-4-(6-(2-(pyrrolidin-1-yl)ethoxy)benzofuran-3-yl)benzamide]
21 | > 10000 nM | 2490 nM | 385 nM | COc1cc(-c2coc3cc(OCCN4CCCC4)ccc23)cc(OC(F)F)c1C(=O)N[C@H]1CCCC[C@H]1O [Compound 125, 2-(difluoromethoxy)-N-((1S,2R)-2-hydroxycyclohexyl)-6-methoxy-4-(6-(2-(pyrrolidin-1-yl)ethoxy)benzofuran-3-yl)benzamide]
22 | > 10000 nM | 878 nM | 224 nM | COc1cc(-c2coc3cc(OCCN4CCCC4)ccc23)cc(OC(F)F)c1C(=O)N[C@H]1CCC[C@H]1O [Compound 126, 2-(difluoromethoxy)-N-((1S,2R)-2-hydroxycyclopentyl)-6-methoxy-4-(6-(2-(pyrrolidin-1-yl)ethoxy)benzofuran-3-yl)benzamide]
23 | > 10000 nM | 2900 nM | 619 nM | COc1cc(-c2coc3cc(OCCN4CCCC4)ccc23)cc(OC(F)F)c1C(=O)NC1CCCCC1 [Compound 127, N-cyclohexyl-2-(difluoromethoxy)-6-methoxy-4-(6-(2-(pyrrolidin-1-yl)ethoxy)benzofuran-3-yl)benzamide]

Row | Structure (SMILES) | IC50 [1] | IC50 [2] | IC50 [3]
24 | NC1CC(Oc2cc(-c3coc4cc(OCCN5CCCC5)ccc34)cc(OC(F)F)c2C(=O)NC2CC2)C1 (stereo not drawn) [Compound 109, 2-(3-aminocyclobutoxy)-N-cyclopropyl-6-(difluoromethoxy)-4-(6-(2-(pyrrolidin-1-yl)ethoxy)benzofuran-3-yl)benzamide] | > 10000 nM | 2520 nM | 329 nM
